Consider four compounds from patent EP4786487A1, “PEPTIDE” (Peptidream Inc, priority 2023, dated 2025).

One assay addresses T1, Myostatin (Homo sapiens, UniProt O14793).
T1 construct: active myostatin (also called mature myostatin) is a homodimer consisting of two C-terminal growth factor domains; purchased R&D systems 788-G8/CF
T1 sequence (O14793 267-375): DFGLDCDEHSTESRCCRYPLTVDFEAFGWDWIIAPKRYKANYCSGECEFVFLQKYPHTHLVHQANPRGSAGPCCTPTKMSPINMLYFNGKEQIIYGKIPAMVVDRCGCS
Briefly: HepG2 reporter gene assay, Evaluation Procedure (2): 2-concentrations assay, myostatin inhibition. Type of assay: cell-based. Conditions: Myostatin 10 ng/mL, HepG2; for inhibition at 0.03 µM: peptide 30nM, read-out: Myostatin Inhibition 30nM; for inhibition at 0.1 µM: peptide 100nM, read-out: Myostatin Inhibition 100nM. A digest of the protocol: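 HepG2 cells (HB-8065, ATCC) carrying the transfected pGL3(CAGA)12-luc reporter plasmid were treated with myostatin (788-G8/CF, R&D systems) at a final concentration of 10 ng/mL plus peptide and incubated at 37°C, 5% CO2 for 20 to 24 hours. Luminescence was read after adding PBS mixed 1:1 with One-Glo substrate, and inhibition rate was calculated.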
In general terms: In a reporter assay the amount or activity of a reporter protein is the signal.

Another assay addresses T2, GDF-11 (Homo sapiens, UniProt O95390).
T2 construct: purchased R&D systems 1958-GD-G8/CF
T2 sequence (O95390 299-407): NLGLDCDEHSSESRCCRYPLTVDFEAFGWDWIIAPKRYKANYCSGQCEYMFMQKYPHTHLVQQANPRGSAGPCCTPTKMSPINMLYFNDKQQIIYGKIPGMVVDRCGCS
Briefly: HepG2 reporter gene assay, Evaluation Procedure (2): 2-concentrations assay, GDF-11 inhibition. Type of assay: cell-based. As to conditions: GDF-11 10 ng/mL; for inhibition at 0.03 µM: HepG2, peptide 30nM, read-out: GDF11 Inhibition 30nM; for inhibition at 0.1 µM: HepG2, peptide 100nM, read-out: GDF11 Inhibition 100nM. In short, it runs like this: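 HepG2 cells carrying the transfected pGL3(CAGA)12-luc reporter, a pGL3 vector with luciferase placed downstream of 12 CAGA repeats, were stimulated with GDF-11 at a final 10 ng/mL together with test peptide. Blank wells received no GDF-11 and no peptide. Plates were incubated 20 to 24 hours at 37°C with 5% CO2. Luminescence from One-Glo substrate was read to calculate percent inhibition.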

Starred links: 1 amine or outer side, 2 acyl side, 3 side chain; linkers in the order of their positions; H or OH if unused. Positions of bridges follow the written chain, without caps; N, C: chain ends. Non-standard residues stand in square brackets, D forms with d. Residues, ends and D or L forms follow the SMILES beside them. Ala(1-CH2CO2H-4-piperidyl) = N[C@@H](CC1CCN(CC(=O)O)CC1)C(=O)O; Phe(4-COOH) = N[C@@H](Cc1ccc(C(=O)O)cc1)C(=O)O; Gly(N(CH2)3COOH) = O=C(O)CCCNCC(=O)O; X1 = CCCCCCC[C@H](N[*:1])C(=O)[*:2]; X7 = COCCCCC[C@H](N[*:1])C(=O)[*:2]; X5 = CC(=O)NCCCN(CC(=O)[*:2])[*:1]; NMeF = CN[C@@H](Cc1ccccc1)C(=O)O; 4Pal = N[C@@H](Cc1ccncc1)C(=O)O; NMeA = CN[C@@H](C)C(=O)O; Nme = COCCNCC(=O)O; Sar = CNCC(=O)O

For the compound `CCCCCCC[C@@H]1NC(=O)[C@H](Cc2ccccc2)N(C)C(=O)[C@H](CCCNC(=N)N)NC(=O)[C@H](Cc2ccc(C(=O)O)cc2)NC(=O)[C@H](Cc2ccncc2)NC(=O)CN(C)C(=O)[C@H]([C@@H](C)CC)NC(=O)[C@H](Cc2ccccc2)N(C)C(=O)[C@H](Cc2ccc(O)cc2)NC(=O)[C@H](Cc2c[nH]c3ccccc23)NC(=O)[C@H](C)NC(=O)CN(CCOC)C(=O)CSC[C@H](C(=O)O)NC(=O)[C@H](Cc2ccccc2)N(C)C(=O)[C@H](C)N(C)C1=O` [Myostatin_99_v224] ({CH2CO}-[Nme]AWY[NMeF]I[Sar][4Pal][Phe(4-COOH)]R[NMeF][X1][NMeA][NMeF][dC]-OH; thioether N-15), the inhibition (in general, the drop in the measured response relative to a control, in per cent) at 0.03 µM on Myostatin came to 96%; on GDF-11, 0%. Also, the inhibition at 0.1 µM on Myostatin amounted to 99%; at GDF-11, 0%.
For `CCCCCCC[C@@H]1NC(=O)[C@H](Cc2ccccc2)N(C)C(=O)[C@H](CCCNC(=N)N)NC(=O)[C@H](Cc2ccc(C(=O)O)cc2)NC(=O)[C@H](Cc2ccncc2)NC(=O)CN(C)C(=O)[C@H]([C@@H](C)CC)NC(=O)[C@H](Cc2ccccc2)N(C)C(=O)[C@H](Cc2ccc(O)cc2)NC(=O)[C@H](Cc2c[nH]c3ccccc23)NC(=O)[C@H](C)NC(=O)CN(CCCNC(C)=O)C(=O)CSC[C@H](C(=O)O)NC(=O)[C@H](Cc2ccccc2)N(C)C(=O)[C@H](C)N(C)C1=O` [Myostatin_99_v225] ({CH2CO}-[X5]AWY[NMeF]I[Sar][4Pal][Phe(4-COOH)]R[NMeF][X1][NMeA][NMeF][dC]-OH; thioether N-15), the results for the inhibition at 0.03 µM at Myostatin and at GDF-11 were 94% and 0%, respectively. Moreover, the inhibition at 0.1 µM on Myostatin was 99%; on GDF-11 it was 3%.
For the compound `CC[C@H](C)[C@@H]1NC(=O)[C@H](Cc2ccccc2)N(C)C(=O)[C@H](Cc2ccc(O)cc2)NC(=O)[C@H](Cc2c[nH]c3ccccc23)NC(=O)[C@H](C)NC(=O)CN(CCCC(=O)O)C(=O)CSC[C@H](C(=O)O)NC(=O)[C@H](Cc2ccccc2)N(C)C(=O)[C@H](C)N(C)C(=O)[C@H](CCCCCOC)NC(=O)[C@H](Cc2ccccc2)N(C)C(=O)[C@H](CCCNC(=N)N)NC(=O)[C@H](Cc2ccc(C(=O)O)cc2)NC(=O)[C@H](Cc2ccncc2)NC(=O)CN(C)C1=O` [Myostatin_99_v228] ({CH2CO}-[Gly(N(CH2)3COOH)]AWY[NMeF]I[Sar][4Pal][Phe(4-COOH)]R[NMeF][X7][NMeA][NMeF][dC]-OH; thioether N-15), on Myostatin, the inhibition at 0.03 µM turned out to be 19% and the inhibition at 0.1 µM is 60%. Also, on GDF-11, the inhibition at 0.03 µM worked out at 4% and the inhibition at 0.1 µM was 0%.
Consider `CCCCCCC[C@@H]1NC(=O)[C@H](Cc2ccccc2)N(C)C(=O)[C@H](CCCNC(=N)N)NC(=O)[C@H](Cc2ccc(C(=O)O)cc2)NC(=O)[C@H](Cc2ccncc2)NC(=O)CN(C)C(=O)[C@H]([C@@H](C)CC)NC(=O)[C@H](Cc2ccccc2)N(C)C(=O)[C@H](Cc2ccc(O)cc2)NC(=O)[C@H](Cc2c[nH]c3ccccc23)NC(=O)[C@H](C)NC(=O)[C@H](CC2CCN(CC(=O)O)CC2)NC(=O)CSC[C@H](C(=O)O)NC(=O)[C@H](Cc2ccccc2)N(C)C(=O)[C@H](C)N(C)C1=O` [Myostatin_99_v232] ({CH2CO}-[Ala(1-CH2CO2H-4-piperidyl)]AWY[NMeF]I[Sar][4Pal][Phe(4-COOH)]R[NMeF][X1][NMeA][NMeF][dC]-OH; thioether N-15), for which the inhibition at 0.03 µM on Myostatin was 58%; on GDF-11, 0%. The inhibition at 0.1 µM on Myostatin is 84%; at GDF-11, 0%.
